Assay results taken from the supplement of paper PMC5908809.

Experiments:
KAI3 (IL-2 2.5 ng/mL) [1] = test: drug sensitivity score (DSS) (DSS units); higher = more sensitive; extreme values may be limits of the assay; details: 72 h
[2] = test system: normal primary NK cells, pool 1 (3 donors), resting (IL-2 0 ng/mL); test: as above; details: 72 h
KHYG-1 (IL-2 2.5 ng/mL) [3] = test: as above; details: 72 h
YT (IL-2 2.5 ng/mL) [4] = test: as above; details: 72 h
DERL-7 (IL-2 2.5 ng/mL) [5] = test: as above; details: 72 h
NK-92 (IL-2 2.5 ng/mL) [6] = test: as above; details: 72 h
[7] = test system: normal primary NK cells, pool 3 (3 donors) (IL-2 2.5 ng/mL); test: as above; details: 72 h
[8] = test system: normal primary NK cells, pool 2 (3 donors) (IL-2 2.5 ng/mL); test: as above; details: 72 h
[9] = test system: normal primary NK cells, pool 1 (3 donors) (IL-2 2.5 ng/mL); test: as above; details: 72 h
NK-YS (IL-2 2.5 ng/mL) [10] = test: as above; details: 72 h
NKL (IL-2 2.5 ng/mL) [11] = test: as above; details: 72 h
SNK-6 (IL-2 2.5 ng/mL) [12] = test: as above; details: 72 h
IMC-1 (IL-2 20 ng/mL) [13] = test: as above; details: 72 h
KAI3 (IL-2 2.5 ng/mL) [14] = test: percent inhibition of viability; higher = more inhibition; details: 72 h
[15] = test system: normal primary NK cells, pool 1 (3 donors), resting (IL-2 0 ng/mL); test: as above; details: 72 h
KHYG-1 (IL-2 2.5 ng/mL) [16] = test: as above; details: 72 h
YT (IL-2 2.5 ng/mL) [17] = test: as above; details: 72 h
DERL-7 (IL-2 2.5 ng/mL) [18] = test: as above; details: 72 h
NK-92 (IL-2 2.5 ng/mL) [19] = test: as above; details: 72 h
[20] = test system: normal primary NK cells, pool 3 (3 donors) (IL-2 2.5 ng/mL); test: as above; details: 72 h
[21] = test system: normal primary NK cells, pool 2 (3 donors) (IL-2 2.5 ng/mL); test: as above; details: 72 h
[22] = test system: normal primary NK cells, pool 1 (3 donors) (IL-2 2.5 ng/mL); test: as above; details: 72 h
NK-YS (IL-2 2.5 ng/mL) [23] = test: as above; details: 72 h
NKL (IL-2 2.5 ng/mL) [24] = test: as above; details: 72 h
SNK-6 (IL-2 2.5 ng/mL) [25] = test: as above; details: 72 h
IMC-1 (IL-2 20 ng/mL) [26] = test: as above; details: 72 h
[27] = test system: normal NK cells expanded with K562-aAPC; test: as above; details: 72 h, IL-2 2.5 ng/mL
Experimental: (§1)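 Drug sensitivity and resistance testing on K562-aAPC-expanded normal NK cells: 5 concentrations (10-fold steps over a 10,000-fold range), 72 h at 37 °C, viability by CellTiter-Glo normalised to DMSO and benzethonium chloride controls; DSS from the fitted curve.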

[28] = test system: normal NK cells expanded with K562-aAPC; test: drug sensitivity score (DSS) (DSS units); higher = more sensitive; extreme values may be limits of the assay; details: 72 h; IL-2 2.5 ng/mL
Experimental: as §1

CS(=O)(=O)c1ccc(C2=C(c3ccccc3)C(=O)OC2)cc1 [Rofecoxib] (max concentration tested 10000 nM)
Details | drug sensitivity score
DERL-7 (IL-2 2.5 ng/mL) [5] | 0
IMC-1 (IL-2 20 ng/mL) [13] | 0
KAI3 (IL-2 2.5 ng/mL) [1] | 0
KHYG-1 (IL-2 2.5 ng/mL) [3] | 0
NK-92 (IL-2 2.5 ng/mL) [6] | 0
NK-YS (IL-2 2.5 ng/mL) [10] | 0
NKL (IL-2 2.5 ng/mL) [11] | 0
SNK-6 (IL-2 2.5 ng/mL) [12] | 0
YT (IL-2 2.5 ng/mL) [4] | 0
[2] | 0
[7] | 0
[8] | 0
[9] | 0
[28] | 0

percent inhibition of viability [%]
Details | 1 nM | 10 nM | 100 nM | 1000 nM | 10000 nM
DERL-7 (IL-2 2.5 ng/mL) [18] | 6.85 | -1.97 | -3.99 | 2.79 | 0.07
IMC-1 (IL-2 20 ng/mL) [26] | 2.54 | 0.06 | 3 | -1.23 | 3.31
KAI3 (IL-2 2.5 ng/mL) [14] | 8.75 | 4.53 | 5.34 | 3.57 | -3.77
KHYG-1 (IL-2 2.5 ng/mL) [16] | 0.01 | 1.72 | 2.69 | 2.11 | 2.37
NK-92 (IL-2 2.5 ng/mL) [19] | 11.4 | -0.5 | -4.39 | -1.55 | -5.21
NK-YS (IL-2 2.5 ng/mL) [23] | 3.55 | -3.6 | -2.98 | 3.34 | -0.78
NKL (IL-2 2.5 ng/mL) [24] | 11.4 | 9.36 | 8.93 | 4.19 | 9.11
SNK-6 (IL-2 2.5 ng/mL) [25] | 8.2 | 18.3 | 4.94 | 9.79 | 3.14
YT (IL-2 2.5 ng/mL) [17] | 5.17 | 5.42 | 4.83 | 4.08 | 6.74
[15] | -13.7 | -25.3 | -34.2 | -6.69 | -25.9
[20] | -7.45 | -5.99 | -3.42 | -7.23 | -12.4
[21] | -7.81 | 1.86 | -6.15 | -8.51 | -5.43
[22] | -5.06 | -9.08 | -8.33 | 2.49 | 0.6
[27] | 10.3 | 5.54 | 3.01 | 2.73 | 3.42
